The nature of the data set: chemical recovery from spiked human plasma; higher = better extraction. Particulars: pooled human plasma.
[1] abbreviates: extraction method: PES+SPE (3 d PDMS equilibration then HLB SPE).
The mark [2] stands for this setting: extraction method: SPE only (HLB 96-well).
Where [3] appears, read: extraction method: SPE only (HLB 96-well), PES comparison experiment.
[4] abbreviates: extraction method: solvent precipitation (ACN + hexane).

Our source for the chemical recovery values is the supplement of paper PMC10702517.

± gives the standard deviation.

In the case of `Cc1cccc(C)c1NC(=O)CS(=O)(=O)O`, the chemical recovery is 21.8 ± 8.2% under setting [1], 5.38 ± 9.3% under setting [2] and 38.3 ± 6.6% under setting [3].

Regarding `Clc1nc2ccccc2s1`, under setting [4], the chemical recovery was 5.44 ± 5.7%.

As for `CC(c1ccc(O)cc1)(c1ccc(O)cc1)c1ccc(O)cc1` [1,1,1-Tris(4-hydroxyphenyl)ethane], the chemical recovery reads like this: under setting [1], 59.9 ± 5%; under setting [2], 43.2 ± 4.1%; under setting [4], 43.3 ± 2.1%.

Consider `COc1ccc(C(c2ccc(OC)cc2)C(Cl)Cl)cc1` [1,1-Dichloro-2,2-bis(4-methoxyphenyl)ethan], for which the chemical recovery is 9.27 ± 2.4% under setting [2] and 33.1 ± 7.1% under setting [4].

As for `O=c1[nH]sc2ccccc12` [1,2-Benzisothiazolinone], the chemical recovery is, setting by setting: under setting [1], 7.12 ± 0.96%; under setting [2], 10.7 ± 1.4%; under setting [3], 1.19 ± 2.4%; under setting [4], 5.44 ± 4.6%.

In the case of `Cc1ccccc1NC(=N)Nc1ccccc1C` [1,3-Di-o-tolylguanidine], the chemical recovery runs as follows: under setting [1], 20.9 ± 2.6%; under setting [2], 34.2 ± 2.8%; under setting [4], 64.5 ± 1.7%.

As for `N=C(Nc1ccccc1)Nc1ccccc1` [1,3-Diphenylguanidine], the chemical recovery by setting is: under setting [1], 22.6 ± 3%; under setting [2], 34.5 ± 2.5%; under setting [3], 48.7 ± 4.8%; under setting [4], 59.5 ± 2.6%.

On to `O=C(Nc1ccccc1)Nc1ccccc1` [1,3-Diphenylurea], for which the chemical recovery under setting [1] was 65.9 ± 7.5%, the chemical recovery under setting [2] was determined as 46.9 ± 3.4% and the chemical recovery under setting [4] is 84.4 ± 7.3%.

For the compound `Cc1cc2cccc(C)c2cc1C` [1,6,7-Trimethylnaphthalene], the chemical recovery under setting [2] worked out at 2.3 ± 4%.

Turning to `Nc1ccc2nc3c(N)cccc3nc2c1` [1,7-Diaminophenazine], the chemical recovery runs as follows: under setting [1], 15 ± 1.5%; under setting [2], 52.7 ± 6.3%.

For the compound `Cn1cnc2c1c(=O)n(CCCC(=O)O)c(=O)n2C` [1-(3-carboxypropyl)-3,7-dimethylxanthine], the chemical recovery under setting [1] amounted to 72.3 ± 13%, the chemical recovery under setting [2] came out at 54.3 ± 10% and the chemical recovery under setting [4] was 59.8 ± 6.9%.

Regarding `O=C(Nc1ccccc1)NC1CCCCC1` [1-Cyclohexyl-3-phenylurea], the chemical recovery is 70.3 ± 10% under setting [1], 57.4 ± 16% under setting [2] and 79.9 ± 4% under setting [4].

For the compound `CCCCCCCCCCS(=O)(=O)O` [1-Decanesulfonic-acid], the chemical recovery is, setting by setting: under setting [1], 42 ± 5.2%; under setting [2], 31.5 ± 2.9%; under setting [4], 61.5 ± 1.9%.

With `CCCCCCCCCCCCS(=O)(=O)O` [1-Dodecanesulfonic-acid], the chemical recovery turned out to be 25.6 ± 3% under setting [2] and 52.1 ± 2.3% under setting [4].

Turning to `CCn1cc[n+](C)c1` [1-Ethyl-3-methyl-imidazolium], the chemical recovery under setting [2] stood at 0.856 ± 0.42%.

In the case of `CCCCCCS(=O)(=O)O` [1-Hexanesulfonic-acid], the chemical recovery is 31.6 ± 3.8% under setting [1], 30.6 ± 4.2% under setting [2] and 74.2 ± 8.3% under setting [4].

Turning to `Cc1cccc2cc3ccccc3cc12` [1-Methylanthracene], under setting [2], the chemical recovery is 4.65 ± 1.1%.

For `Cc1cccc2ccccc12` [1-Methylnaphthalene], the chemical recovery under setting [2] came to 2.62 ± 2%.

Take `Cc1ccc2ccc3cccc4ccc1c2c34` [1-Methylpyrene]: the chemical recovery by setting is: under setting [2], 3.46 ± 0.94%; under setting [4], 34 ± 4%.

Take `O=S(=O)(O)c1cccc2c(O)cccc12` [1-Naphthol-5-sulfonic acid]: the chemical recovery under setting [3] was 35.9 ± 5.8%.

On to `O=C(c1ccc(O)cc1O)c1ccc(O)cc1O` [2,2',4,4'-Tetrahydroxybenzophenone], for which the chemical recovery turned out to be 50 ± 4.4% under setting [1] and 51.4 ± 4.7% under setting [2].

Consider `Oc1ccccc1-c1ccccc1O` [2,2'-Dihydroxybiphenyl], for which the chemical recovery runs as follows: under setting [1], 46.1 ± 1.6%; under setting [2], 43.3 ± 2.8%.

Turning to `Cc1cc(Cc2cc(C)cc(C(C)(C)C)c2O)c(O)c(C(C)(C)C)c1` [2,2'-Methylenebis(6-tert-butyl-p-cresol)], under setting [2], the chemical recovery is 7.83 ± 3.9%.

In the case of `CCc1cc(Cc2cc(CC)cc(C(C)(C)C)c2O)c(O)c(C(C)(C)C)c1` [2,2'-Methylenebis(ethyl-6-tert-butylphenol)], the chemical recovery was 3.63 ± 3.5% under setting [2] and 64.9 ± 8.7% under setting [4].

For `Nc1ccc(Cc2ccc(N)c(Cl)c2)cc1Cl` [2,2'-dichloro-4,4'-methylenedianiline], the chemical recovery was 28.7 ± 6.4% under setting [1], 47 ± 13% under setting [2] and 71.3 ± 5.2% under setting [4].

Consider `Cc1c(Br)c(Br)c(C)c(Br)c1Br` [2,3,5,6-Tetrabromo-p-xylene], for which the chemical recovery reads like this: under setting [1], 83.9 ± 17%; under setting [2], 17 ± 6.2%; under setting [4], 103 ± 16%.

Under setting [2], `Cc1ccc(C)c(O)c1C` [2,3,6-Trimethylphenol] had a chemical recovery of 0.62 ± 1.1%.

The compound `Cc1cc2ccccc2cc1C` [2,3-Dimethylnaphthalene] showed a chemical recovery under setting [2] of 0.0627 ± 0.11%.

For the compound `C[N+](C)(C)CC1CO1` (centres undefined) [2,3-Epoxypropyltrimethylammonium], the chemical recovery is 0.728 ± 0.46% under setting [1] and 0.76 ± 0.94% under setting [2].

`Oc1c(Br)cc(Br)cc1Br` [2,4,6-Tribromophenol]: the chemical recovery came out at 46.9 ± 0.63% under setting [1], 35 ± 8.7% under setting [2] and 55.2 ± 4.1% under setting [4].

For the compound `O=C(O)CCCOc1ccc(Cl)cc1Cl` [2,4-DB], the chemical recovery runs as follows: under setting [1], 66.6 ± 7.5%; under setting [2], 50.7 ± 2.8%; under setting [4], 61.5 ± 6%.

Turning to `O=C(O)COc1ccc(Cl)cc1Cl` [2,4-Dichlorophenoxyacetic acid], the chemical recovery by setting is: under setting [3], 56.3 ± 5.5%; under setting [4], 73.2 ± 6.1%.

In the case of `O=C(c1ccccc1)c1ccc(O)cc1O` [2,4-Dihydroxybenzophenone], the chemical recovery is, setting by setting: under setting [1], 53.8 ± 3.7%; under setting [2], 42.1 ± 2.9%; under setting [4], 59.2 ± 3.6%.

As for `NC(=O)c1c(Cl)cccc1Cl` [2,6-Dichlorobenzamide], the chemical recovery under setting [2] is 63.3 ± 4.5%.

As to `CC(C)c1ccc2cc(C(C)C)ccc2c1` [2,6-Diisopropylnaphthalene], the chemical recovery under setting [3] is 16.8 ± 6.9%.

In the case of `Cc1ccc2cc(C)ccc2c1` [2,6-Dimethylnaphthalene], the chemical recovery under setting [2] is 0.083 ± 0.072%.

With `Cc1cccc(C)c1N` [2,6-Xylidine], the chemical recovery worked out at 7.08 ± 5% under setting [2] and 48 ± 3.5% under setting [4].

In the case of `O=S(=O)(O)c1ccc2ccc(S(=O)(=O)O)cc2c1` [2,7-Naphthalenedisulfonic acid], the chemical recovery by setting is: under setting [2], 60.6 ± 17%; under setting [4], 72.8 ± 11%.

Regarding `Nc1ccc2nc3ccc(N)cc3nc2c1` [2,8-Diaminophenazine], the chemical recovery by setting is: under setting [1], 11.8 ± 0.64%; under setting [2], 38.5 ± 14%; under setting [4], 53.2 ± 6.7%.

On to `COCCOCCOCCO` [2-(2-(2-Methoxyethoxy)ethoxy)ethanol], for which the chemical recovery stood at 7.13 ± 2.3% under setting [1] and 6.88 ± 5.6% under setting [2].

For `c1ccc2cc(-c3cc4ccccc4s3)ccc2c1` [2-(2-Naphthalenyl)benzothiophene], the chemical recovery is, setting by setting: under setting [1], 59.8 ± 2.4%; under setting [2], 0.402 ± 0.15%; under setting [4], 23.4 ± 1%.

Turning to `O=S(=O)(O)CCNC1CCCCC1` [2-(Cyclohexylamino)-ethansulfonic-acid], the chemical recovery worked out at 0.697 ± 0.13% under setting [1], 2.37 ± 1.9% under setting [2] and 72.2 ± 2.7% under setting [4].

For the compound `NCCN1CCNCC1` [2-(Piperazin-1-yl)ethanamine], the chemical recovery under setting [3] was 1.9 ± 2.2%.

Consider `N#CSCSc1nc2ccccc2s1` [2-(Thiocyanomethylthio)benzothiazole], for which the chemical recovery came to 44.1 ± 2.3% under setting [2] and 18.4 ± 10% under setting [4].

`CC(=O)c1ccc2ccccc2c1` [2-Acetonaphthone] gave a chemical recovery under setting [3] of 80.9 ± 10%.

Regarding `Cn1c(N)nc2ncc(-c3ccccc3)cc21` [2-Amino-1-methyl-6-phenylimidazo[4,5-b]pyridine (PhIP)], the chemical recovery amounted to 38.9 ± 2.9% under setting [1], 39.3 ± 2.8% under setting [2], 47 ± 5.8% under setting [3] and 72.4 ± 2.8% under setting [4].

Turning to `Cn1c(N)nc2ncc(-c3ccccc3)cc21` [2-Amino-1-methyl-6-phenylimidazo[4,5-b]pyridine-(PhIP)], the chemical recovery reads like this: under setting [1], 49 ± 2.1%; under setting [2], 45.2 ± 2.2%; under setting [4], 70.9 ± 3.6%.

Regarding `Cc1cnc2ccc3c(nc(N)n3C)c2n1` [2-Amino-3,8-dimethylimidazo-[4,5-f]quinoxaline (MeIQx)], the chemical recovery turned out to be 48.7 ± 6% under setting [1], 49.1 ± 2.6% under setting [2] and 72.4 ± 3.3% under setting [4].

Regarding `Cn1c(N)nc2c3cccnc3ccc21` [2-Amino-3-methyl-imidazo[4,5-f]quinoline (IQ)], under setting [2], the chemical recovery amounted to 11.1 ± 1.8%.

Regarding `Cn1c(N)nc2c3cccnc3ccc21` [2-Amino-3-methyl-imidazo[4,5-f]quinoline-(IQ)], the chemical recovery was found to be 27 ± 5.9% under setting [1], 13.8 ± 2.6% under setting [2] and 73.4 ± 2.7% under setting [4].

In the case of `Cc1cc(C)nc(N)n1` [2-Amino-4,6-dimethylpyrimidine], under setting [2], the chemical recovery turned out to be 2.25 ± 2.4%.

Turning to `Nc1ccc2c(n1)[nH]c1ccccc12` [2-Amino-9H-pyrido[2,3-b]indole-(AalphaC)], the chemical recovery came out at 17.4 ± 2.8% under setting [1], 32.5 ± 2.4% under setting [2] and 62.4 ± 5.3% under setting [4].

As to `Nc1nc2ccccc2[nH]1` [2-Aminobenzimidazole], the chemical recovery worked out at 18.8 ± 4.5% under setting [2] and 68.3 ± 4.5% under setting [4].

`CC(Cl)CN(C)C` (centres undefined) [2-Chloropropyldimethylamine]: the chemical recovery was determined as 0.712 ± 0.094% under setting [1] and 1.1 ± 0.73% under setting [2].

`CCCCC(CC)COP(=O)(Oc1ccccc1)Oc1ccccc1` (centres undefined) [2-Ethylhexyldiphenylphosphate]: the chemical recovery under setting [2] came to 38.9 ± 8.9%.

The compound `NNc1ccccn1` [2-Hydrazinopyridine] yielded a chemical recovery under setting [1] of 0.622 ± 0.11% and a chemical recovery under setting [2] of 9.35 ± 5%.

Take `CCNc1nc(NC(C)C)[nH]c(=O)n1` [2-Hydroxyatrazine]: the chemical recovery by setting is: under setting [1], 36.1 ± 4.4%; under setting [2], 29.1 ± 3.5%; under setting [3], 44.3 ± 8.2%; under setting [4], 76.5 ± 3.2%.

As for `Oc1ccc2c(c1)[nH]c1ccccc12` [2-Hydroxycarbazole], the chemical recovery turned out to be 52.1 ± 4.4% under setting [1] and 40.6 ± 5% under setting [2].

As for `Cc1cc(=O)nc(C(C)C)[nH]1` [2-Isopropyl-6-methyl-pyrimidin-4-ol], the chemical recovery turned out to be 45.2 ± 5.9% under setting [1], 34.6 ± 4% under setting [2], 44.3 ± 8.5% under setting [3] and 77.2 ± 3.2% under setting [4].

As for `Cc1ccc2cc3ccccc3cc2c1` [2-Methylanthracene], the chemical recovery was determined as 51.5 ± 4.5% under setting [1] and 3.56 ± 0.86% under setting [2].

In turn, `Cc1ccc2ccccc2c1` [2-Methylnaphthalene] yielded a chemical recovery under setting [2] of 2.91 ± 1.5%.
